Results reported in US20040057908A1, “Oral compositions and use thereof” (priority 2003, published 2004).
Several values for one entry are separate records, joined by “and”; a condition that tells them apart may be missing. Identical values can stand only once. Entries after “also recorded” stand apart in the source; their conditions may differ.

What was measured:
[1] = system: S. mutans UA159 and S. sobrinus 6715 biofilms; experiment: Time-kill assay in 5-day-old biofilms; format: cell-based; conditions: 1.33 mM (fluoride 250 ppm)
Method: Cells of mutans streptococci were grown in tryptone-yeast extract broth with addition of 1% (w/v) sucrose at 37° C. and 5% CO2. […] The killing assays were performed according to Phan et al. (2000). […] The homogenized suspension was serially diluted (10^1 to 10^4) and plated on tryptic soy agar or blood agar by means of a spiral plater (Autoplate model 3000, Spiral Biotech, Inc., Bethesda, Md). […] Killing curves were constructed by plotting log10 CFU/ml versus time over 4 h. All the assays were carried out in quadruplicate on at least 3 different occasions. Bactericidal effect was defined as a ≧3 log10 decreases in the CFU/ml from initial viable counts, at time zero. The potential for drug carry-over to produce falsely low viability counts was minimized by dilution of inocula and plating of small volumes of diluted samples (50 μl).

[2] = system: Streptococcus sobrinus 6715; experiment: Rat caries experiment: S. sobrinus recovered from the jaws; format: in vivo, Sprague Dawley rats; conditions: rats, topical twice daily, five weeks; 1.33 mM (fluoride 250 ppm); means (SD)
Method: (§1) Seven litters of ten female Sprague Dawley rats aged 14 days were purchased with their dams from Charles River (Kingston, N.Y., USA). […] The experiment proceeded for five weeks, at which time the animals were killed by CO2 asphyxiation. The lower left jaw was aseptically dissected, suspended in 5.0 mL of sterile saline solution, and sonicated (three 10-second pulses with 5-second intervals at 30 watts, Branson Sonifier 450). The suspension was plated on mitis salivarius agar plus streptomycin to estimate S. sobrinus population and on blood agar to determine total cultivable flora (TCF). […] The determination of caries score was blind by codification of the jaws and was done by 1 calibrated examiner. […] The level of significance was 5%.

[3] = system: dental caries; experiment: Rat caries experiment: caries scores (Larson's modification of Keyes' system); format: in vivo, Sprague Dawley rats; conditions: Ds and Dm levels; tt-farnesol Dm only; p<0.05
Method: as §1

[4] = molecular target: T1, GTF Ss (Streptococcus sanguinis, UniProt A3CLJ9); experiment: GTF activity in solution, GTF Ss; format: biochemical, S. sanguinis; conditions: read-out: GTF Ss sol. % of Inhib.
Method: (§2) Glucosyltransferase activity was measured by the incorporation of [^14C-glucose] from labeled sucrose (NEN Research Products, Boston, Mass.) into glucans (Germaine et al., 1974; Venkitaraman et al., 1995). The GTF enzyme added to each sample for all assays was equivalent to the amount required to incorporate 1.0-1.5 μmol of glucose over the four hours reaction (1.0-1.5 units).
(§3) For solution assays, purified GTF B, C, D and Ss were mixed with a two-fold dilution series of the test compounds (concentration ranging from 125 to 500 μM) and incubated with [^14C-glucose]-sucrose substrate (0.2 μCi/ml) (200.0 mmol/l sucrose, 40 μmol/l dextran 9000, 0.02% sodium azide in adsorption buffer—50 mM KCl, 1.0 mM KPO4, 1.0 mM CaCl2, 0.1 mM MgCl2−pH=6.5) to reach a final concentration of 100 mmol/l sucrose (200 μl final volume). For the control, the same reaction was carried out, where ethanol:DMSO (final concentration of 7.5% and 1.25%, v/v) or ethanol (final concentration of 5%, v/v) replaced the test agent solutions. The samples were incubated 37° C. with rocking for 4 h. After incubation, ice-cold ethanol (1.0 ml) was added and the samples were stored for 18 h, 4° C. for precipitation of glucans. Radiolabeled glucan was determined by scintillation counting (Germaine et al., 1974; Venkitaraman et al., 1995).

[5] = molecular target: T2, GTF B (Streptococcus mutans serotype c, UniProt P08987); experiment: GTF activity adsorbed onto saliva-coated hydroxyapatite (sHA) surface, GTF B; format: biochemical
T2 construct: made in house; host or cells: Streptococcus milleri KSB8 (culture supernatant)
Method: as §2
(§4) For surface assays, the GTFs were adsorbed to hydroxyapatite beads coated with clarified whole saliva (free of GTF activity), as detailed elsewhere (Koo et al., 2000c; Schilling and Bowen, 1988, Venkitaraman et al., 1995). The saliva-coated hydroxyapatite (sHA) beads were exposed to sufficient enzyme to saturate the surface as determined experimentally. Following the adsorption of the enzyme, the beads were washed 3 times with buffer to remove the loosely bound material and exposed to 300 μl of the two-fold dilution series of test compounds (or control) for 30 min. at the same concentrations described above. The beads were washed and exposed to 300 μl [^14C-glucose]-sucrose substrate (100.0 mmol/l sucrose, final concentration). The radiolabeled glucan formed was collected and quantified by scintillation counting (Germaine et al., 1974; Venkitaraman et al., 1995). All the solution and surface assays were done in quadruplicate in at least 3 different experiments.

[6] = molecular target: T3, GTF C (Streptococcus mutans serotype c, UniProt P13470); experiment: GTF activity adsorbed onto sHA surface, GTF C; format: biochemical
T3 construct: The supernatant was carefully collected as the source of GTF C; made in house; host or cells: Streptococcus mutans WHB 410 (endogenous gtfC; urea/Triton extract of washed cells, hydroxyapatite chromatography)
Method: as §2, §4

[7] = molecular target: T1, GTF Ss; experiment: GTF activity adsorbed onto sHA surface, GTF Ss; format: biochemical, S. sanguinis
Method: as §2, §4

[8] = system: T4, streptococcal GTFs; experiment: GTF activity in solution, all GTFs (B, C, D, Ss) stated together; format: biochemical, Streptococcus mutans, S. sanguinis; conditions: 1.33 mM
T4 construct: Streptococcus milleri KSB8, which harbors the gtfB gene from S. mutans GS-5 (for GTF B production)
Method: The GTF enzyme added to each sample for all assays was equivalent to the amount required to incorporate 1.0-1.5 μmol of glucose over the four hours reaction (1.0-1.5 units).
The samples were incubated 37° C. with rocking for 4 h.
For this assay, a one-way layout experimental design was used in 4×2×7 factorial scheme (enzyme×state×dose). An analysis of variance was carried out and qualitative treatments were compared using Tukey test at level of 5% of significance (p<0.05). A non-linear regression was applied in order to evaluate effects of different concentrations.

[9] = molecular target: T3, GTF C; experiment: GTF activity in solution, GTF C; format: biochemical; conditions: read-out: GTF C sol. % of Inhib.
Method: as §2, §3

[10] = read-out: GTF B surf. % of Inhib.
[11] = read-out: GTF C surf. % of Inhib.
[12] = read-out: GTF Ss surf. % of Inhib.

T2 sequence (P08987 35-1476): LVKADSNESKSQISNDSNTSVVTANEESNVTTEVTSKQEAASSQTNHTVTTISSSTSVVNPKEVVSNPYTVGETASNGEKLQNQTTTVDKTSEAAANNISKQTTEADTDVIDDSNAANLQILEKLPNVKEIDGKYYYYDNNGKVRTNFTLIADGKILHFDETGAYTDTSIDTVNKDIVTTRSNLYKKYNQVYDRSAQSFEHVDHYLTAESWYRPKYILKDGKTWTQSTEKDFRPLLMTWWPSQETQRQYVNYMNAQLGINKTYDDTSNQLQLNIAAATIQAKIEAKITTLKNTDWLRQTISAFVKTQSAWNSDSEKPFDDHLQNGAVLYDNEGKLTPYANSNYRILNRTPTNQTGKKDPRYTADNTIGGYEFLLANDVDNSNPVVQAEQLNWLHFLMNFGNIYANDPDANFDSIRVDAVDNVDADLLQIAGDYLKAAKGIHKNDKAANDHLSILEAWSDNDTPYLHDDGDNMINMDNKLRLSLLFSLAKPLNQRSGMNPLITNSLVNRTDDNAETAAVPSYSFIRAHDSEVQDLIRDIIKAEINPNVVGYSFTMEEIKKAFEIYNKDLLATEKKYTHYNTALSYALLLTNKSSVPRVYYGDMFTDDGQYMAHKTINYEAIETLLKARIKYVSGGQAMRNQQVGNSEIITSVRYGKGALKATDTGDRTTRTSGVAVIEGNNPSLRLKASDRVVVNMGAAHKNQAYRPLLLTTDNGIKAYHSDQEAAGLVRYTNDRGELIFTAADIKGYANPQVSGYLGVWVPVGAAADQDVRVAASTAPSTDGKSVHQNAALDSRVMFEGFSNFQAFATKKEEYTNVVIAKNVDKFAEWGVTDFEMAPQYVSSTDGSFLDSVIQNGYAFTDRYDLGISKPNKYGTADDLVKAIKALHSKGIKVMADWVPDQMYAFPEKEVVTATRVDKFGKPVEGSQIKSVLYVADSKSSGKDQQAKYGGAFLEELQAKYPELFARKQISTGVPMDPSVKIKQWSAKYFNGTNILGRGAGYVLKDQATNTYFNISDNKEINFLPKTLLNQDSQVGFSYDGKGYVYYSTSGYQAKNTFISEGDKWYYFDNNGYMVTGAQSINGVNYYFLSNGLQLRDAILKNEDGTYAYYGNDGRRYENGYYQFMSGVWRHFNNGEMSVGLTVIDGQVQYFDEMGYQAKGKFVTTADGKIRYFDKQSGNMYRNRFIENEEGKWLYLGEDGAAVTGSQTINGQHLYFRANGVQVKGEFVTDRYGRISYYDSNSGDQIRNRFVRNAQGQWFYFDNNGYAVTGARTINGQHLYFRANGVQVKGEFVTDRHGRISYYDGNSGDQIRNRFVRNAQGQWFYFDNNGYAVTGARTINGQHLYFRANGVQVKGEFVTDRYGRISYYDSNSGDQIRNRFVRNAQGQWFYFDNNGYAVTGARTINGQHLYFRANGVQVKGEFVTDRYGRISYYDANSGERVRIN
T3 sequence (P13470 35-1455): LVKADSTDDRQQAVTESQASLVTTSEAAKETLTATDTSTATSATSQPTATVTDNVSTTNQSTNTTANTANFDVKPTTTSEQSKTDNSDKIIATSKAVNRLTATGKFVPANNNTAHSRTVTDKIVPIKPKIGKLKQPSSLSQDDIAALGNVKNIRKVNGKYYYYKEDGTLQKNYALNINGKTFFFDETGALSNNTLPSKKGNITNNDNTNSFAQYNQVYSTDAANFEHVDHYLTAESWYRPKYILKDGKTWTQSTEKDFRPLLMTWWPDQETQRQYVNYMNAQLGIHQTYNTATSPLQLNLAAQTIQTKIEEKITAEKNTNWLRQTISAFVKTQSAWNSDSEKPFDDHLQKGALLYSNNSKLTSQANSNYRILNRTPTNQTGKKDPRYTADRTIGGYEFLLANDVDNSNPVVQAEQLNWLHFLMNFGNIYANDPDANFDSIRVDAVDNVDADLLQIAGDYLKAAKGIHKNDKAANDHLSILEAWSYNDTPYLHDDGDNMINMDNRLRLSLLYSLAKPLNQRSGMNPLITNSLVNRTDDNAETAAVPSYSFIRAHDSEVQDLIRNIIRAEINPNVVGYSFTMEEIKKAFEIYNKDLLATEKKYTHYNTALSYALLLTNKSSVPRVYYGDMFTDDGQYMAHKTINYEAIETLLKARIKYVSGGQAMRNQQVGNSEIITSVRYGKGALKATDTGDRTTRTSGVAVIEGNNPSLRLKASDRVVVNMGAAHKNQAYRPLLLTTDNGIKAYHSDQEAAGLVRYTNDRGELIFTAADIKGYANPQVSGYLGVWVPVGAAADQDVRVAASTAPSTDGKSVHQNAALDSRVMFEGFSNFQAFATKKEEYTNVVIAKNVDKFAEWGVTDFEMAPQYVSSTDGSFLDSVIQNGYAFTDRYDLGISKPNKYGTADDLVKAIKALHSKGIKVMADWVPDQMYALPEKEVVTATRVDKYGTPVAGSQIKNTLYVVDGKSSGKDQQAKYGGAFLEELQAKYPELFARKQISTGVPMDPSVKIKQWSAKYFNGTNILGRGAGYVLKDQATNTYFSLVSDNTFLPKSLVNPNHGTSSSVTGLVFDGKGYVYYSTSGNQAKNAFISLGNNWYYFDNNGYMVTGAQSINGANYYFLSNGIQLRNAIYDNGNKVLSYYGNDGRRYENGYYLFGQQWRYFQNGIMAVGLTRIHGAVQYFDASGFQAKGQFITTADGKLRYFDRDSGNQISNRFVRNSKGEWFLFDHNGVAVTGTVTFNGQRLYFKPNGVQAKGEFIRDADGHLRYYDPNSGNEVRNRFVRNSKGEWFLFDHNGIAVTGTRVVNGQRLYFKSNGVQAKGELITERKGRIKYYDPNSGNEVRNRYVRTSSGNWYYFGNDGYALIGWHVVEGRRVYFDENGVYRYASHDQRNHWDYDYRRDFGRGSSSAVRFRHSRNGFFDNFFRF

O=c1cc(-c2ccc(O)cc2)oc2cc(O)cc(O)c12 [Apigenin]
antibacterial activity against mutans streptococci biofilms (in words) [1]: devoid of antibacterial effects; also recorded: negligible antibacterial activity
Infection by S. sobrinus, % [2]: 40.6 (14.2)^ab %
smooth-surface caries severity scores versus control (in words) [3]: significantly lower
inhibition at 125 µM [4]: 83.2%
inhibition at 250 µM [4]: 91.2%
inhibition at 500 µM [4]: 92.7%
IC50 ([5]; IC50 for surface-adsorbed GTF B, surface-adsorbed): 478 µM and 474 µM
inhibition at 125 µM [5, 10]: 31.8%
inhibition at 250 µM [5, 10]: 40%
inhibition at 500 µM [5, 10]: 55.5%
IC50 ([6]; IC50 for surface-adsorbed GTF C, surface-adsorbed): 458 µM and 451 µM
inhibition at 125 µM [6, 11]: 30%
inhibition at 250 µM [6, 11]: 42.1%
inhibition at 500 µM [6, 11]: 60.5%
inhibition at 125 µM [7, 12]: 13.8%
inhibition at 250 µM [7, 12]: 20.2%
inhibition at 500 µM [7, 12]: 30%
IC50 ([7]; read-out: IC50 for surface-adsorbed GTF SS, surface-adsorbed): > 1 mM
inhibition of GTFs in solution [8]: 90-95%
inhibition at 125 µM [9]: 77.5%
inhibition at 250 µM [9]: 87.5%
inhibition at 500 µM [9]: 90.5%
